Drawing on US20260347364A1, “PYRAZOLO[4,3-F]QUINAZOLINE DERIVATIVES AS MODULATORS OF G12D MUTANT KRAS USEFUL FOR THE TREATMENT OF CANCER” (JAZZ PHARMACEUTICALS IRELAND LTD., priority 2023, published 2026), this text covers IC50 for 21 compounds.

As usually defined, the IC50 is the concentration at which inhibition is half-maximal. Low values mean greater potency in that assay, high ones weaker potency in that assay.

In one assay the target is T1, KRAS G12D (Homo sapiens, UniProt P01116, G12D).
T1 construct: aa1-188 KRAS WT, HRAS WT, NRAS WT, or KRAS containing the G12D
The assay can be described thus: HTRF nucleotide exchange assay, KRAS G12D. The class given is biochemical. As to conditions: HTRF nucleotide exchange assay (NEA), class symbols. For orientation: In TR-FRET formats the signal depends on donor and acceptor labels being close together.

Another assay has as its target T2, KRAS WT (Homo sapiens, UniProt P01116).
T2 construct: aa1-188 KRAS WT
The assay can be described thus: HTRF nucleotide exchange assay, KRAS WT. As to conditions: HTRF nucleotide exchange assay (NEA), class symbols. The class given is biochemical.

T2 sequence (P01116 1-188 isoform P01116-2): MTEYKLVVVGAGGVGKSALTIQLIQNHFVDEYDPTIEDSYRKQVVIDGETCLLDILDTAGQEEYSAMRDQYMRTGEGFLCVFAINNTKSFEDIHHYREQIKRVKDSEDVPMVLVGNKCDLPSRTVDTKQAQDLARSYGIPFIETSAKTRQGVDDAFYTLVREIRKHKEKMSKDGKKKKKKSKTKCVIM
T1 sequence (P01116 1-188 isoform P01116-2 G12D): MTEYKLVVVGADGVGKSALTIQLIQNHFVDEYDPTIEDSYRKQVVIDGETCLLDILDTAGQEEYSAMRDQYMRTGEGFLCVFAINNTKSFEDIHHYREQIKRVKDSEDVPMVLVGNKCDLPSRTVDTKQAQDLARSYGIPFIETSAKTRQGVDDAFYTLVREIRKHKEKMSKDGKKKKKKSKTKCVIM

`CCc1c(F)ccc2cc(O)cc(-c3c(F)c4nc(OCC5(CN6CCOC(C(F)(F)F)C6)CC5)nc(N5CCOCC(C)(O)C5)c4c4cn(C)nc34)c12` (stereo not drawn) [Example 219, 4-[4-(8-ethyl-7-fluoro-3-hydroxy-1-naphthyl)-5-fluoro-2-methyl-7-[[1-[[2-(trifluoromethyl)morpholin-4-yl]methyl]cyclopropyl]methoxy]pyrazolo[4,3-f]quinazolin-9-yl]-6-methyl-1,4-oxazepan-6-ol]: the IC50 on KRAS G12D and against KRAS WT was 100 to 10000 nM in each case.

As to `CCc1c(F)ccc2cc(O)cc(-c3c(F)c4nc(OCC5(CN6CC7CC7C6)CC5)nc(N5CCOCC(C)(O)C5)c4c4cn(C)nc34)c12` (stereo not drawn) [Example 221, 4-[7-[[1-(3-azabicyclo[3.1.0]hexan-3-ylmethyl)cyclopropyl]methoxy]-4-(8-ethyl-7-fluoro-3-hydroxy-1-naphthyl)-5-fluoro-2-methyl-pyrazolo[4,3-f]quinazolin-9-yl]-6-methyl-1,4-oxazepan-6-ol], the IC50 at KRAS G12D and on KRAS WT was at most 10 nM throughout.

In the case of `CCc1c(F)ccc2cc(O)cc(-c3c(F)c4nc(OCC5(CN(C)C)CCC5)nc(N5CCOCC(C)(O)C5)c4c4cn(C)nc34)c12` (stereo not drawn) [Example 222, 4-[7-[[1-[(dimethylamino)methyl]cyclobutyl]methoxy]-4-(8-ethyl-7-fluoro-3-hydroxy-1-naphthyl)-5-fluoro-2-methyl-pyrazolo[4,3-f]quinazolin-9-yl]-6-methyl-1,4-oxazepan-6-ol], the IC50 at KRAS G12D and at KRAS WT was at most 10 nM throughout.

As to `CCc1c(F)ccc2cc(O)cc(-c3c(F)c4nc(OC[C@@]56CCCN5C[C@H](F)C6)nc(N5CCOCC(O)C5)c4c4cn(C)nc34)c12` (stereo partly drawn) [Example 223, 4-[4-(8-ethyl-7-fluoro-3-hydroxy-1-naphthyl)-5-fluoro-7-[[(2R,8S)-2-fluoro-1,2,3,5,6,7-hexahydropyrrolizin-8-yl]methoxy]-2-methyl-pyrazolo[4,3-f]quinazolin-9-yl]-1,4-oxazepan-6-ol], the half-maximal inhibitory concentration (IC50) against KRAS G12D and against KRAS WT was at most 10 nM throughout.

For the compound `CCc1c(F)ccc2cc(O)cc(-c3c(F)c4nc(OCCC5CN(C)CCO5)nc(N5CCOCC(C)(O)C5)c4c4cn(C)nc34)c12` (stereo not drawn) [Example 224, 4-[4-(8-ethyl-7-fluoro-3-hydroxy-1-naphthyl)-5-fluoro-2-methyl-7-[2-(4-methylmorpholin-2-yl)ethoxy]pyrazolo[4,3-f]quinazolin-9-yl]-6-methyl-1,4-oxazepan-6-ol], the IC50 at KRAS G12D is at most 10 nM; against KRAS WT, 10 to 100 nM.

For `CCc1c(F)ccc2cc(O)cc(-c3c(F)c4nc(OCC5(CN6CCC(CC#N)CC6)CC5)nc(N5CCOCC(C)(O)C5)c4c4cn(C)nc34)c12` (stereo not drawn) [Example 225, 2-[1-[[1-[[4-(8-ethyl-7-fluoro-3-hydroxy-1-naphthyl)-5-fluoro-9-(6-hydroxy-6-methyl-1,4-oxazepan-4-yl)-2-methyl-pyrazolo[4,3-f]quinazolin-7-yl]oxymethyl]cyclopropyl]methyl]-4-piperidyl]acetonitrile], the IC50 against KRAS G12D and against KRAS WT was at most 10 nM each time.

For `CCc1c(F)ccc2cc(O)cc(-c3c(F)c4nc(OCC5(CN6CCC7(CCOCC7)C6)CC5)nc(N5CCOCC(C)(O)C5)c4c4cn(C)nc34)c12` (stereo not drawn) [Example 228, 4-[4-(8-ethyl-7-fluoro-3-hydroxy-1-naphthyl)-5-fluoro-2-methyl-7-[[1-(8-oxa-2-azaspiro[4.5]decan-2-ylmethyl)cyclopropyl]methoxy]pyrazolo[4,3-f]quinazolin-9-yl]-6-methyl-1,4-oxazepan-6-ol], the IC50 on KRAS G12D and on KRAS WT was at most 10 nM in each case.

Take `CCc1c(F)ccc2cc(O)cc(-c3c(F)c4nc(OCC5(CN6CCC(F)(F)CC6)CC5)nc(N5CCOCC(C)(O)C5)c4c4cn(C)nc34)c12` (stereo not drawn) [Example 229, 4-[7-[[1-[(4,4-difluoro-1-piperidyl)methyl]cyclopropyl]methoxy]-4-(8-ethyl-7-fluoro-3-hydroxy-1-naphthyl)-5-fluoro-2-methyl-pyrazolo[4,3-f]quinazolin-9-yl]-6-methyl-1,4-oxazepan-6-ol]: the half-inhibitory concentration (IC50) against KRAS G12D and at KRAS WT was at most 10 nM each time.

Take `CCc1c(F)ccc2cc(O)cc(-c3c(F)c4nc(OCC5(CN(C)C)CC5)nc(N5CCC[C@@](C)(O)C5)c4c4cn(C)nc34)c12` [Example 230, (3R)-1-[7-[[1-[(dimethylamino)methyl]cyclopropyl]methoxy]-4-(8-ethyl-7-fluoro-3-hydroxy-1-naphthyl)-5-fluoro-2-methyl-pyrazolo[4,3-f]quinazolin-9-yl]-3-methyl-piperidin-3-ol]: the IC50 against KRAS G12D and on KRAS WT was at most 10 nM each time.

On to `CCc1c(F)ccc2cc(O)cc(-c3c(F)c4nc(OCC5(CN6CC[C@H](F)C6)CC5)nc(N5CCOCC(C)(O)C5)c4c4cn(C)nc34)c12` (stereo partly drawn) [Example 231, 4-[4-(8-ethyl-7-fluoro-3-hydroxy-1-naphthyl)-5-fluoro-2-methyl-7-[[1-[[(3S)-3-fluoropyrrolidin-1-yl]methyl]cyclopropyl]methoxy]pyrazolo[4,3-f]quinazolin-9-yl]-6-methyl-1,4-oxazepan-6-ol], for which the IC50 against KRAS G12D and against KRAS WT was at most 10 nM each time.

Regarding `CCc1c(F)ccc2cc(O)cc(-c3c(F)c4nc(OCC5COCCN5C)nc(N5CCOCC(C)(O)C5)c4c4cn(C)nc34)c12` (stereo not drawn) [Example 232, 4-[4-(8-ethyl-7-fluoro-3-hydroxy-1-naphthyl)-5-fluoro-2-methyl-7-[(4-methylmorpholin-3-yl)methoxy]pyrazolo[4,3-f]quinazolin-9-yl]-6-methyl-1,4-oxazepan-6-ol], the IC50 against KRAS G12D and against KRAS WT was 10 to 100 nM in each case.

Regarding `CCc1c(F)ccc2cc(O)cc(-c3c(F)c4nc(OCC5COCCN5)nc(N5CCOCC(C)(O)C5)c4c4cn(C)nc34)c12` (stereo not drawn) [Example 233, 4-[4-(8-ethyl-7-fluoro-3-hydroxy-1-naphthyl)-5-fluoro-2-methyl-7-(morpholin-3-ylmethoxy)pyrazolo[4,3-f]quinazolin-9-yl]-6-methyl-1,4-oxazepan-6-ol], the half-maximal inhibitory concentration (IC50) at KRAS G12D is at most 10 nM; on KRAS WT it was 10 to 100 nM.

As to `CCc1c(F)ccc2cc(O)cc(-c3c(C)c4nc(OC[C@]5(C)CCCN5C)nc(N5CCC[C@@](C)(O)C5)c4c4cn(C)nc34)c12` [Example 234], the IC50 was at most 10 nM against KRAS G12D and 10 to 100 nM on KRAS WT.

On to `CCc1c(F)ccc2cc(O)cc(-c3c(F)c4nc(OCC56CCCN5CC(=C(F)F)C6)nc(N5CCOCC(C)(O)C5)c4c4cn(C)nc34)c12` (stereo not drawn) [Example 235, 4-[7-[[6-(difluoromethylene)-2,3,5,7-tetrahydro-1H-pyrrolizin-8-yl]methoxy]-4-(8-ethyl-7-fluoro-3-hydroxy-1-naphthyl)-5-fluoro-2-methyl-pyrazolo[4,3-f]quinazolin-9-yl]-6-methyl-1,4-oxazepan-6-ol], for which the IC50 against KRAS G12D and against KRAS WT was at most 10 nM in each case.

`CCc1c(F)ccc2cc(O)cc(-c3c(F)c4nc(OC[C@@]5(CN(C)C)CC5(F)F)nc(N5CCOCC(C)(O)C5)c4c4cn(C)nc34)c12` (stereo partly drawn) [Example 236, 4-[4-(8-ethyl-7-fluoro-3-hydroxy-1-naphthyl)-5-fluoro-2-methyl-7-[[(1S)-1-[(dimethylamino)methyl]-2,2-difluoro-cyclopropyl]methoxy]pyrazolo[4,3-f]quinazolin-9-yl]-6-methyl-1,4-oxazepan-6-ol]: the IC50 against KRAS G12D and against KRAS WT was at most 10 nM each time.

`CCc1c(F)ccc2cc(O)cc(-c3c(C)c4nc(OCC5(CF)COC5)nc(N5CC6CCC5CN6)c4c4cn(C)nc34)c12` (stereo not drawn) [Example 240, 4-[9-(2,5-diazabicyclo[2.2.2]octan-2-yl)-7-[[3-(fluoromethyl)oxetan-3-yl]methoxy]-2,5-dimethyl-pyrazolo[4,3-f]quinazolin-4-yl]-5-ethyl-6-fluoro-naphthalen-2-ol]: the concentration for half-maximal inhibition (IC50) was in the range of 10 to 100 nM against KRAS G12D and 100 to 10000 nM on KRAS WT.

Regarding `CCc1c(F)ccc2cc(O)cc(-c3c(C)c4nc(OCC5(C#N)CCOC5)nc(N5CC6CCC(C5)N6)c4c4cn(C)nc34)c12` (stereo not drawn) [Example 241, 3-[[9-(3,8-diazabicyclo[3.2.1]octan-3-yl)-4-(8-ethyl-7-fluoro-3-hydroxy-1-naphthyl)-2,5-dimethyl-pyrazolo[4,3-f]quinazolin-7-yl]oxymethyl]tetrahydrofuran-3-carbonitrile], the IC50 against KRAS G12D is at most 10 nM; on KRAS WT, 100 to 10000 nM.

`CCc1c(F)ccc2cc(O)cc(-c3c(C)c4nc(OCC5(CO)CC5)nc(N5CC6CCC(C5)N6)c4c4cn(C)nc34)c12` [Example 242, 4-[9-(3,8-diazabicyclo[3.2.1]octan-3-yl)-7-[[1-(hydroxymethyl)cyclopropyl]methoxy]-2,5-dimethyl-pyrazolo[4,3-f]quinazolin-4-yl]-5-ethyl-6-fluoro-naphthalen-2-ol]: the 50% inhibitory concentration (IC50) against KRAS G12D was at most 10 nM; against KRAS WT, 100 to 10000 nM.

Take `CCc1c(F)ccc2cc(O)cc(-c3c(C)c4nc(OC[C@@]56CCCN5C[C@H](F)C6)nc(N5CCCn6nc(COC)cc6C5)c4c4cn(C)nc34)c12` [Example 243]: the IC50 against KRAS G12D and against KRAS WT was at most 10 nM throughout.

On to `CCc1c(F)ccc2cc(O)cc(-c3c(F)c4nc(OCC5(C#N)CCOC5)nc(N5CCCNC(=O)C5)c4c4cn(C)nc34)c12` (stereo not drawn) [Example 244, 3-[[4-(8-ethyl-7-fluoro-3-hydroxy-1-naphthyl)-5-fluoro-2-methyl-9-(3-oxo-1,4-diazepan-1-yl)pyrazolo[4,3-f]quinazolin-7-yl]oxymethyl]tetrahydrofuran-3-carbonitrile], for which the IC50 against KRAS G12D and against KRAS WT was 100 to 10000 nM throughout.

For the compound `CCc1c(F)ccc2cc(O)cc(-c3c(F)c4nc(OCC5(CN(C)C)CC5)nc(N5CCOC[C@@](C)(O)C5)c4c4cn(C)nc34)c12` [Example 245, (6S)-4-[7-[[1-[(dimethylamino)methyl]cyclopropyl]methoxy]-4-(8-ethyl-7-fluoro-3-hydroxy-1-naphthyl)-5-fluoro-2-methyl-pyrazolo[4,3-f]quinazolin-9-yl]-6-methyl-1,4-oxazepan-6-ol], the IC50 at KRAS G12D and against KRAS WT was at most 10 nM each time.
